Measured values taken from patent US9308210B2, “Method for modulating canonical Wnt pathway using folate and inositol” (University of South Florida, priority 2009, dated 2016).
Where “and” joins values, the source holds several entries; their conditions need not be identical. Equal entries are not always repeated. Structures can show the parent of a compound that is named as a salt.

How the values were obtained:
[1] = tested on: Hex and Islet-1 (Isl1) gene expression; assay: In situ hybridization of Hex and Isl1 in avian heart fields after Li, HCy or Wnt3A with or without FA; format: in vivo, chick
Method: In situ hybridizations on control and experimentally manipulated chick embryos were carried out using digoxigenin-labeled riboprobes with alkaline phosphatase detection (Linask et al., 2001). Images of whole-mounted chick embryos were taken with a Nikon DS-L2 camera unit. Probes for chick Hex were provided by Parker Antin, University of Arizona and probes for chick Islet-1 (Isl1) were provided by Thomas Jessell, Columbia University, NY.
Chick embryos (HH stages 3+/4) were incubated on agarose albumin supplemented with HCy (50 μM). Instead of giving a single injection in ovo, embryos were exposed to HCy for 8 hours in order to define the effect on early cardiac gene expression. Another group of embryos were exposed to HCy for 24 hours at which time the effects on gene expression were determined. To analyze the effects during the looping stages, incubation was stopped after between 22 and 24 hours. After the 8-hour incubation, Li and HCy suppressed Hex and Isl1 expression in the cardiogenic crescent (FIG. 5).
The inventors next analyzed whether FA rescues the downregulation of Hex and Isl1. Chick embryos were exposed to Li, HCy or Wnt3A, as above, with and without 10 μg/ml of FA; the experiments were terminated after either an 8-hour or 24-hour exposure period, at which time in situ hybridizations for gene expression were performed. After 8 hours of exposure, Li, HCy and Wnt3A all suppressed Hex (FIGS. 9D, G, J) and Isl1 (FIGS. 10D, G, J) compared with the control embryonic expression patterns (FIG. 9A; FIG. 10A). […] Thus, FA supplementation suppressed the potentiation of the inhibitory Wnt signaling, allowing for normal induction of Hex and Isl1 gene expression.

C57BL/6 mouse embryos = assay: Doppler ultrasonography at E15.5 of mouse embryos exposed to Li or HCy on E6.75, FA rescue; format: in vivo; conditions: for Valve Regurgitation (percent of embryos): hydrochloride
From the text: To determine whether the results in the avian system would extend to the mammalian system, the inventors conducted studies in the mouse embryo. All mice were maintained according to protocols approved by the Institutional Animal Care and Use Committee at the University of South Florida. The C57BL/6 mouse strain (Jackson Laboratories, Bar Harbor, Me.) was used throughout the study. E0.5 was defined as the morning when the vaginal sperm plug was detected. Timed pregnant mice were randomly allocated to receive a single dose of 100 μl of 6.25 mg/ml Li chloride, as determined previously (Chen et al., 2008), 100 μl of 75 μM HCy, or 100 μl of 6.25 mg/ml sodium chloride (control group); all treatments were given intraperitoneally (i.p). On E15.5, the utero-placental circulation of the pregnant mice, and the central and peripheral circulations of the embryos were examined non-invasively in utero using Doppler ultrasonography (Gui et al., 1996; Linask and Huhta, 2000). Sixty-eight embryos were exposed to Li, 59 to HCy and 42 to physiological saline.
An HCy concentration of 75 μM, used for maternal exposure, was determined empirically using different doses of HCy (i.e. 150, 75, 50 and 15 μM). The minimal teratogenic dose was determined to be 75 μM. […] The single i.p. injection of HCy at E6.75 produced a high number of valve defects (66%), as well as resorptions (46%). […] Because not all embryos within litters are at exactly the same stage of development, the variability of effects seen with either Li or HCy probably reflects the differences in developmental stage.
As a control diet (i.e. normal mouse chow), mice continued to receive 3.3 mg/kg of FA as the baseline to maintain the health of the female mice. […] The animal chow supplemented with 10.5 mg/kg of FA was prepared for us by Harlan Laboratories. As recommended by Harlan, the calculations for the FA level in the special diet are based on the metabolic body weight of mice. Because of the obvious large difference in body weight between humans and mice, and because of the large difference in metabolic rate, Harlan uses the metabolic weight as a method of scaling these differences between species; for mice this was calculated to be BW0.75 (i.e. metabolic weight equals body weight to the 0.75 power). Each mouse consumes approximately 4 g of chow per day; therefore, to obtain the desired dose of 10.5 mg/kg, the inventors added 7.2 mg/kg of FA to the normal 3.3 mg/kg that is present in commercial chow. […]
Doppler ultrasonographic examinations were carried out using the Philips Sonos 5500 (Andover, Mass.) with a 12 MHz transducer and, more recently, with a Vevo 770 (VisualSonics) system. Both instruments provided similar echo patterns. On E15.5, the pregnant mice were anesthetized using a Surgivet Tech 4 anesthesia system (Waukesha, Wis.) with inhalation anesthesia, consisting of 3% isoflurane, administered through a nose cone; the mice were then maintained on 1% isoflurane with 21% oxygen. The mother was placed supine on a heating pad with electrode footpads. The heart rate and temperature of the pregnant mice were monitored using a THM100 (Indus Instruments, Houston, Tex.) during scanning. The body temperature was maintained at 37° C.
Maternal uterine artery blood flow velocity waveforms were obtained and the pulsatility index was calculated. The embryos were visualized and their position mapped in each uterine horn. Blood flow in the heart and blood vessels was detected in each embryo using color Doppler, and blood flow velocity waveforms were obtained using pulsed wave Doppler. Once the embryonic heart was identified by color Doppler, the sample volume of the pulsed Doppler was placed over the entire heart to obtain blood velocities. The gate length was adjusted to completely insonate the beating embryonic heart. The high-pass filter was at its lowest setting of 50 Hz. […]

[2] = echo at E15.5 after exposure on E6.75
[3] = echo at E15.5 after single exposure on E6.75
[4] = median, E15.5 after exposure at E6.75

Nc1nc2ncc(CNc3ccc(C(=O)N[C@@H](CCC(=O)O)C(=O)O)cc3)nc2c(=O)[nH]1 [FA, folic acid]
Hex and Isl1 gene expression with FA supplementation ([1]; embryos exposed to Li, HCy or Wnt3A, FA 10 μg/ml, 8 hours): normalized gene expression patterns
heart formation and Hex/Isl1 expression with FA supplementation ([1]; embryos exposed to Li, HCy or Wnt3A, FA 10 μg/ml, 24 hours): normal beating hearts had formed
rescue of cardiac defects by baseline FA supplementation (C57BL/6 mouse embryos; 3.3 mg/kg of FA in normal mouse chow): does not rescue cardiac defects
normalization of exposure effects by FA provided on E6.75 (C57BL/6 mouse embryos; FA i.p. on E6.75): normalized the effects of HCy, but not Li

N[C@H]1CCSC1=O [HCy, L-homocysteine thiolactone hydrochloride]
Hex and Isl1 expression in the cardiogenic crescent ([1]; 8 hours of exposure, HH stages 3+/4): suppressed
Isl1 gene expression ([1]; by 24 hours of Li or HCy exposure): recovered
outflow peak velocity, maximum mean value (C57BL/6 mouse embryos; E15.5): 84.0
outflow peak velocity, maximum value (C57BL/6 mouse embryos; E15.5): 84.00 cm/s
outflow peak velocity, minimum mean value (C57BL/6 mouse embryos; E15.5): 18.5
outflow peak velocity, minimum value (C57BL/6 mouse embryos; E15.5): 18.53 cm/s
AV valve regurgitation, percent of embryos (C57BL/6 mouse embryos; [2]): 10%
SL valve regurgitation, percent of embryos (C57BL/6 mouse embryos; [2]): 53%
both SL and AV valve regurgitation, percent of embryos (C57BL/6 mouse embryos; [2]): 3%
Valve Regurgitation (embryos affected/total) (C57BL/6 mouse embryos; [3]): 39/59
Valve Regurgitation (percent of embryos) (C57BL/6 mouse embryos; [3]): 66% and 66.1%
Valve Regurgitation (percent of embryos) (C57BL/6 mouse embryos; echo at E15.5 after single exposure on E6.75, listed as HCys): 66.1%
minimal teratogenic dose (C57BL/6 mouse embryos; maternal exposure, mouse, 150, 75, 50 and 15 μM tested): 75 µM
Embryonic A vel (C57BL/6 mouse embryos; [4]): 40.14 cm/s
Embryonic Descending Aorta PI (C57BL/6 mouse embryos; [4]): 1.99
Embryonic Ductus Veno sus PI (C57BL/6 mouse embryos; [4]): 0.97
Embryonic E vel (C57BL/6 mouse embryos; [4]): 12.25 cm/s
Embryonic E/A ratio (C57BL/6 mouse embryos; [4]): 0.30
Embryonic ET % (C57BL/6 mouse embryos; [4]): 42.51%
Embryonic Heart Rate (C57BL/6 mouse embryos; [4]): 181 beats/min
Embryonic ICT % (C57BL/6 mouse embryos; [4]): 6.56%
Embryonic IRT % (C57BL/6 mouse embryos; [4]): 11.93%
Embryonic MPI (C57BL/6 mouse embryos; [4]): 0.44
Embryonic OF peak velocity (C57BL/6 mouse embryos; [4]): 39.92 cm/s
Embryonic Umbilical Artery PI (C57BL/6 mouse embryos; [4]): 1.55
Maternal Heart Rate (C57BL/6 mouse embryos; [4]): #458 beats/min
Maternal Uterine Artery PI (C57BL/6 mouse embryos; [4]): 2.82
valve defects after i.p. injection on E7.75 (C57BL/6 mouse embryos; mouse, in vivo, ip): did not cause any valve defects
